Experimental data reported in US7550558B2, “Antimicrobial peptides and methods for identifying and using such peptides” (priority 2001, dated 2009).
No end group written: not given here.

How the values were obtained:
[1] = tested on: Micrococcus luteus
[2] = tested on: Staphylococcus aureus
[3] = tested on: Escherichia coli
[4] = tested on: Candida albicans
[5] = tested on: Aspergillus nidulans
[6] = literature; cited from earlier work

Sequence	concentrations with no antibacterial effect (MIC) [1] [µg/mL]	concentrations with no antibacterial effect (MIC) [2] [µg/mL]	concentrations with no antibacterial effect (MIC) [3] [µg/mL]	minimum inhibitory concentration (MIC) [4] [µg/mL]	minimum inhibitory concentration (MIC) [5] [µg/mL]	cytotoxic property [6]	hemolytic property [6]
HPLKQYWWRPSI [PW2, HPLKQYWWRPSI]	> 200	> 200	> 200	12.5 to 25	25 to 50		
VRRFPWWWPFLRR [tritrpticin]						cytotoxic	hemolytic
ILPWLWPWWPWRR [indolicidin]						cytotoxic	hemolytic
